Assay results reported in paper PMC8860565, “Molecular Insights into How the Dimetal Center in Dihydropyrimidinase Can Bind the Thymine Antagonist 5-Aminouracil: A Different Binding Mode from the Anticancer Drug 5-Fluorouracil” (Bioinorganic Chemistry and Applications, 2022).
Like-named read-outs stand apart in the source and are kept apart here.

Assays:
[1] = biological target: T1, Pseudomonas aeruginosa DHPase (PaDHPase) (Pseudomonas aeruginosa, UniProt Q9I676); assay: Fluorescence quenching titration of wild-type PaDHPase; assay type: binding
T1 construct: made in house; host or cells: Escherichia coli BL21 (DE3)
T1 sequence (Q9I676 whole entry): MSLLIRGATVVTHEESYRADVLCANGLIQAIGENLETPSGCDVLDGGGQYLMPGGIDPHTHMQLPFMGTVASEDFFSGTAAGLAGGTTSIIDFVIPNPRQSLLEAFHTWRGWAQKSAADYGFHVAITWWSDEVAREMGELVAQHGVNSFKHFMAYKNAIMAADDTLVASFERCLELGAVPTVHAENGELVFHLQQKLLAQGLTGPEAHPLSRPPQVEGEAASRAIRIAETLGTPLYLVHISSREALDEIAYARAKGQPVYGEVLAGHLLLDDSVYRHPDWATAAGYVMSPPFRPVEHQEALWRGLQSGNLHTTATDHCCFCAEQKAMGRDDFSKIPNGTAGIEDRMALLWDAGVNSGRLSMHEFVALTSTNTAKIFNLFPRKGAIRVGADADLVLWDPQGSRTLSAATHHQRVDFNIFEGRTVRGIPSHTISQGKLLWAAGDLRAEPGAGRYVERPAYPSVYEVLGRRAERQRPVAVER
Protocol: (§1) Through the fluorescence quenching analysis, the Kd value of the purified PaDHPase was determined. An aliquot of 5-AU was added into the solution containing PaDHPase (0.8 μM) and 50 mM HEPES at pH 7.0. The decrease in the intrinsic fluorescence of PaDHPase was measured at 336 nm upon excitation at 279 nm and 25°C with a spectrofluorimeter (Hitachi F-2700; Hitachi High-Technologies, Japan). The Kd was obtained using the equation: ΔF = ΔFmax − Kd(ΔF/[5-AU]).
Prior to this study, whether 5-AU could bind to DHPase remained unknown. To confirm if PaDHPase is capable of binding 5-AU, we used the fluorescence quenching method to determine the binding ability of PaDHPase (Figure 4). Quenching is a complex formation process that decreases the fluorescence intensity of protein. […] When 5-AU was titrated into the PaDHPase solution, the intrinsic fluorescence of the protein was progressively quenched. Upon the addition of 300 μM 5-AU, the intrinsic fluorescence of PaDHPase was quenched by 87.3%.
(§2) Figure 4 Fluorescence titration of PaDHPase with 5-AU. (a) The fluorescence emission spectra of PaDHPase with 5-AU of different concentrations (0–300 μM). The decrease in intrinsic fluorescence of protein was measured at 336 nm upon excitation at 279 nm with a spectrofluorimeter. […] (b) The fluorescence emission spectra of PaDHPase-Y155A with 5-AU of different concentrations (0–300 μM). (c) The fluorescence emission spectra of PaDHPase-S289A with 5-AU. (d) The fluorescence emission spectra of PaDHPase-N337A with 5-AU. (e) The fluorescence emission spectra of PaDHPase-C318A with 5-AU. (f) The fluorescence emission spectra of Znα-PaDHPase with 5-AU. (g) An aliquot amount of 5-AU was added to the enzyme solution for determining the Kd. The Kd was obtained by the equation: ΔF = ΔFmax − Kd(ΔF/[5-AU]). Data points are an average of 2–3 determinations within 10% error.

PaDHPase-Y155A = biological target: T2, PaDHPase-Y155A (Pseudomonas aeruginosa, UniProt Q9I676, Y155A); assay: Fluorescence quenching titration of PaDHPase-Y155A mutant; assay type: binding
T2 construct: made in house; host or cells: Escherichia coli BL21 (DE3) (stated for the wild type; mutants purified by the same protocol)
T2 sequence (Q9I676 whole entry Y155A): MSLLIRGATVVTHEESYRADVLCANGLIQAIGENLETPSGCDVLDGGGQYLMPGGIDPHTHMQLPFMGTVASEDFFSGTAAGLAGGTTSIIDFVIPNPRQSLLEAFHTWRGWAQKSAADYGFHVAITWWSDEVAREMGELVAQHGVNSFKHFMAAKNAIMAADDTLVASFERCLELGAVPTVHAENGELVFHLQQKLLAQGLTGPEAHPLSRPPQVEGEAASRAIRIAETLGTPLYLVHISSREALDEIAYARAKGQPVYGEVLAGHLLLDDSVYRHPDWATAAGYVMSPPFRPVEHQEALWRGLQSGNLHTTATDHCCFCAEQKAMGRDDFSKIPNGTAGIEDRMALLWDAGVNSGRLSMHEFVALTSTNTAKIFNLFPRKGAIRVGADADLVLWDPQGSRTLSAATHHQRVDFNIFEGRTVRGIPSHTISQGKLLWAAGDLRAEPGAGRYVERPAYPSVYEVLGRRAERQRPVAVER
Excerpt: (§3) The PaDHPase mutants were generated according to the QuikChange Site-Directed Mutagenesis kit protocol (Stratagene; La Jolla, CA, USA). The wild-type plasmid pET21b-PaDHPase was used as a template. The presence of the mutation was verified by DNA sequencing in each construct. The recombinant mutant proteins were purified using the protocol for the wild-type PaDHPase by Ni^2+-affinity chromatography (Table 1).
as §1, with “The Kd was obtained using the equation: ΔF = ΔFmax − Kd(ΔF/[5-AU]).” left out
as §2, with “(f) The fluorescence emission spectra of Znα-PaDHPase with 5-AU. (g) An aliquot amount of 5-AU was added to the enzyme solution for determining the Kd. The Kd was obtained by the equation: ΔF = ΔFmax − Kd(ΔF/[5-AU]). Data points are an average of 2–3 determinations within 10% error.” left out

PaDHPase-S289A = biological target: T3, PaDHPase-S289A (Pseudomonas aeruginosa, UniProt Q9I676, S289A); assay: Fluorescence quenching titration of PaDHPase-S289A mutant; assay type: binding
T3 construct: made in house; host or cells: Escherichia coli BL21 (DE3) (stated for the wild type; mutants purified by the same protocol)
T3 sequence (Q9I676 whole entry S289A): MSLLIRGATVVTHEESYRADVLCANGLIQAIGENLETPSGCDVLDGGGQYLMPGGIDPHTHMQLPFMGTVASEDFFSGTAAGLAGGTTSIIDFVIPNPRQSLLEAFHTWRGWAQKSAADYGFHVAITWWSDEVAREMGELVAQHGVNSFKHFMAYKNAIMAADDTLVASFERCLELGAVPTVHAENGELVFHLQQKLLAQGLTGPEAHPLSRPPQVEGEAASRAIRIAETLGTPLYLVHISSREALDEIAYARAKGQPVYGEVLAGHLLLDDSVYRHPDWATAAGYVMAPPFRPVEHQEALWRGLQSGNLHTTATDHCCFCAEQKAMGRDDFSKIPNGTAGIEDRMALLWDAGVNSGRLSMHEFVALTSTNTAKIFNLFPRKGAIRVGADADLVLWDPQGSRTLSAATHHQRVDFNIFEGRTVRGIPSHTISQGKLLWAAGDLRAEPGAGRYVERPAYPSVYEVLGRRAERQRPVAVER
Excerpt: as §3, §1, §2
(§4) 5-AU interacts with the main chains of residues Ser289 and Asn337 and the side chain of residue Tyr155. To investigate the contribution of individual amino acid residues to 5-AU binding, alanine substitution mutants (Table 2) were constructed and analyzed by fluorescence quenching (Figures 4(b)–4(d)).

PaDHPase-N337A = biological target: T4, PaDHPase-N337A (Pseudomonas aeruginosa, UniProt Q9I676, N337A); assay: Fluorescence quenching titration of PaDHPase-N337A mutant; assay type: binding
T4 construct: made in house; host or cells: Escherichia coli BL21 (DE3) (stated for the wild type; mutants purified by the same protocol)
T4 sequence (Q9I676 whole entry N337A): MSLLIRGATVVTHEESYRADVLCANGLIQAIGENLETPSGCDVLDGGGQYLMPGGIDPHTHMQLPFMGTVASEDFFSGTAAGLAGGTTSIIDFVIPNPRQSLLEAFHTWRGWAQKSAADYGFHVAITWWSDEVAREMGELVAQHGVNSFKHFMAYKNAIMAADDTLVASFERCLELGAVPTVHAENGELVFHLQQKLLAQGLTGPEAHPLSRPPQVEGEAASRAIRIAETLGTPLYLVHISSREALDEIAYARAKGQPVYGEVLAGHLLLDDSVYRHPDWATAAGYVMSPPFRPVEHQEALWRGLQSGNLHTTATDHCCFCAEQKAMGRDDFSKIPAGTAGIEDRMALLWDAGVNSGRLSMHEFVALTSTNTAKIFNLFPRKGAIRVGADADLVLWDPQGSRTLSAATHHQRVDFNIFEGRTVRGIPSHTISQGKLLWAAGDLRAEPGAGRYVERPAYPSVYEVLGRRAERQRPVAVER
Excerpt: as §3, §1, §2, §4

PaDHPase-C318A = biological target: T5, PaDHPase-C318A (Pseudomonas aeruginosa, UniProt Q9I676, C318A); assay: Fluorescence quenching titration of PaDHPase-C318A mutant; assay type: binding
T5 construct: made in house; host or cells: Escherichia coli BL21 (DE3) (stated for the wild type; mutants purified by the same protocol)
T5 sequence (Q9I676 whole entry C318A): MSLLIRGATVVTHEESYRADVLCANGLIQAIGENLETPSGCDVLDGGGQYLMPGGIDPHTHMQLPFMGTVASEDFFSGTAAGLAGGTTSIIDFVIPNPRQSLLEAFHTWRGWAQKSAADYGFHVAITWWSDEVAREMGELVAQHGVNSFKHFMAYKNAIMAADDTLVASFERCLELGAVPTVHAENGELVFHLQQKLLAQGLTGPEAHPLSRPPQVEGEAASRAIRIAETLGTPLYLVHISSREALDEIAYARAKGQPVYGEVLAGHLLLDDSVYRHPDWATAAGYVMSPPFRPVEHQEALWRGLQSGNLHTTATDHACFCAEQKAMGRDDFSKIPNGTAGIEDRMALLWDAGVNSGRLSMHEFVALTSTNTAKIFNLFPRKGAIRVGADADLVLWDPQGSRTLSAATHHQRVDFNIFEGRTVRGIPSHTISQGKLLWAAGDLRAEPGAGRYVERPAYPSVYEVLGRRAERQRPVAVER
Excerpt: as §3, §1, §2
Structurally, Cys318 is involved in 5-FU [44] but not 5-AU. For comparison, the C318A mutant was also analyzed by fluorescence quenching (Figure 4(e)). […] The abilities of the wild-type PaDHPase and the C318A mutant to bind 5-AU are approximately equal. Thus, Cys318 is not essential for 5-AU binding.

[2] = biological target: T6, Znα-PaDHPase (mono-Zn PaDHPase) (Pseudomonas aeruginosa, UniProt Q9I676); assay: Fluorescence quenching titration of mono-Zn PaDHPase; assay type: binding
T6 construct: made in house; host or cells: Escherichia coli BL21 (DE3)
T6 sequence (Q9I676 whole entry): as the sequence (Q9I676 whole entry) above
Protocol: The mono-Zn PaDHPase was prepared using the protocol described previously. Purified PaDHPase was dialyzed against a chelating buffer (50 mM MES, 50 mM EDTA, and 15 mM 8-HQSA, pH 6.5; Buffer B) at room temperature for 3 days. The resultant enzyme solution was then dialyzed against Buffer A.
as §1, §2
To confirm the role of Znβ in 5-AU binding and to compare the binding contribution with other mutant proteins (Table 3), we produced mono-Zn PaDHPase (Znα-PaDHPase) for binding analysis. […] The binding of 5-AU to Znα-PaDHPase was also analyzed by the fluorescence quenching method (Figure 4(f)). Upon the addition of 300 μM 5-AU, the intrinsic fluorescence of Znα-PaDHPase was quenched by 49.3%. The Kd value of Znα-PaDHPase for 5-AU binding was calculated to be 281.5 ± 9.0 μM from the titration curve (Figure 4(g)). Based on the Kd values, the strength of complex formation with 5-AU followed the following order: the wild-type enzyme ≈ C318A > N337A > Y155A ≈ S289A > Znα-PaDHPase (Table 3).

[3] = system: biphasic interphase-mitotic (IM) cells; set-up: method as in PMID 32328702; conditions: cited from earlier work
[4] = biological target: T1, Pseudomonas aeruginosa DHPase (PaDHPase); conditions: read-out: Kd value of PaDHPase bound to 5-FU; wild-type PaDHPase ref 44; cited from earlier work

Nc1c[nH]c(=O)[nH]c1=O [5-AU, 5-aminouracil]
Kd [1]: 97.7 ± 2 µM
Quenching (%) of intrinsic fluorescence ([1]; wild-type PaDHPase, 300 μM 5-AU, emission 336 nm, excitation 279 nm): 87.3%
λ max ([1]; wild-type PaDHPase, emission maximum before and after adding 5-AU): From 336.5 to 343
λ em shift ([1]; wild-type PaDHPase, red shift on adding 5-AU): ~6.5 nm
Kd (PaDHPase-Y155A): 247 ± 4 µM
λ max (PaDHPase-Y155A; PaDHPase-Y155A, emission maximum before and after adding 5-AU): From 336.5 to 342
Kd (PaDHPase-S289A): 256 ± 3.2 µM
λ em shift (PaDHPase-S289A; PaDHPase-S289A): 2.0 nm
λ max (PaDHPase-S289A; PaDHPase-S289A, emission maximum before and after adding 5-AU): From 337 to 339
Kd (PaDHPase-N337A): 192 ± 8 µM
λ em shift (PaDHPase-N337A; PaDHPase-N337A): 3.5 nm
λ max (PaDHPase-N337A; PaDHPase-N337A, emission maximum before and after adding 5-AU): From 336 to 339.5
Kd (PaDHPase-C318A): 103 ± 3.1 µM
λ em shift (PaDHPase-C318A; PaDHPase-C318A): 6.0 nm
λ max (PaDHPase-C318A; PaDHPase-C318A, emission maximum before and after adding 5-AU): From 336 to 342
Kd [2]: 281 ± 9 µM
λ em shift ([2]; Znα-PaDHPase): 1.5 nm
Quenching (%) of intrinsic fluorescence ([2]; Znα-PaDHPase (mono-Zn), 300 μM 5-AU): 49.3%
λ max ([2]; Znα-PaDHPase, emission maximum before and after adding 5-AU): From 335 to 336.5
induction of biphasic interphase-mitotic (IM) cells [3]: significantly induce biphasic interphase-mitotic (IM) cells

O=c1[nH]cc(F)c(=O)[nH]1 [5-FU, 5-fluorouracil]
Kd [4]: 133 ± 8.5 µM
induction of biphasic interphase-mitotic (IM) cells [3]: no induction of IM cells was detected
